Experimental findings from patent US9242996B2 (Novartis AG, priority 2013, dated 2016) are described below.

activated ERK2, sequence (P28482 whole entry): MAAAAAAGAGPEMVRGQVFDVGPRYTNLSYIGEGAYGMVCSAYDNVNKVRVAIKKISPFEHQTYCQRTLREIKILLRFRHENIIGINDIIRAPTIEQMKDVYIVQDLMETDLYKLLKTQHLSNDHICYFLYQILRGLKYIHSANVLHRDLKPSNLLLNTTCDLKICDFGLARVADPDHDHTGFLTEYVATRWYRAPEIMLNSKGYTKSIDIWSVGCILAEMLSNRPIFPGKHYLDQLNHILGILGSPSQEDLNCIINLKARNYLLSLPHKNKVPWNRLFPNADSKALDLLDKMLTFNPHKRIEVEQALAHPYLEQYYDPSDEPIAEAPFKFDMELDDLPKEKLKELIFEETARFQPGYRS

The assay deals with activated ERK2 (Homo sapiens (Human), UniProt P28482). The assay is described as follows: Activated ERK2 kinase assay, ERK2 New conditions (AlphaScreen, ERKtide phosphorylation). In kind it is biochemical. The note with it: 0.25 nM ERK2, 200 nM ERKtide peptide, 35 μM ATP, 30 min preincubation. As for the experimental part:
The assay is carried out in 50 mM HEPES [pH 7.5], 5 mM MgCl2, 1 mM DTT, 0.01% Tween-20, 0.05% BSA using 0.25 nM ERK2, 200 nM ERKtide peptide and 35 μM ATP (all concentrations are final in the reaction) in a total volume of 10.25 μL. […] Compound dilution series are prepared in 100% DMSO. ERK2 is preincubated with compounds for 30 minutes at ambient temperature. Reaction is initiated by addition of a substrate cocktail of ERKtide peptide and ATP and is allowed to proceed for 2-3 hours at ambient temperature. Reaction is terminated by addition of 10 μL of a 2× stop buffer consisting of 100 mM Tris-Cl [pH 7.5], 25 mM EDTA, 0.01% Tween 20, 10 μg/mL of AlphaScreen Protein A Acceptor Beads, 10 μg/mL of Streptavidin Donor Beads (PerkinElmer, Waltham, Mass.), and 1.4 μg/mL phospho-EGF Receptor (Thr669) antibody (Cat #3056, Cell Signaling Technology, Danvers, Mass.). Terminated reactions are read, after overnight incubation in the dark, on an EnVision Multilabel Plate Reader (PerkinElmer, Waltham, Mass.), with excitation and emission wavelengths set to 680 nm and 570 nm, respectively. IC50 values are determined using a four-parameter fit.
Regarding `Nc1ncc(C2CCC(=O)NC2)cc1-c1ccc(C(=O)N[C@H](CO)c2cccc(Cl)c2)c(F)c1` (stereo partly drawn) [Example 25, 4-(2-amino-5-(6-oxopiperidin-3-yl)pyridin-3-yl)-N—((S)-1-(3-chlorophenyl)-2-hydroxyethyl)-2-fluorobenzamide], half-maximal inhibition (IC50) was put at 0.343 nM. The figure for `CN1CCC(c2cnc(N)c(-c3ccc(C(=O)N[C@H](CO)c4cccc(Cl)c4)c(F)c3)c2)CC1=O` (stereo partly drawn) [Example 26, 4-(2-amino-5-(1-methyl-2-oxopiperidin-4-yl)pyridin-3-yl)-N—((S)-1-(3-chlorophenyl)-2-hydroxyethyl)-2-fluorobenzamide] is 3.27 nM; for `C[C@@H](NC(=O)c1ccc(-c2cc(C3CCN(C)C(=O)C3)cnc2N)cc1F)c1ccccc1` (stereo partly drawn) [Example 29, 4-(2-amino-5-(1-methyl-2-oxopiperidin-4-yl)pyridin-3-yl)-2-fluoro-N—((R)-1-phenylethyl)benzamide] it is 75.2 nM; for `CN1CC(c2cnc(N)c(-c3ccc(C(=O)N[C@H](CO)c4cccc(Cl)c4)c(F)c3)c2)CCC1=O` (stereo partly drawn) [Example 35, 4-(2-amino-5-(1-methyl-6-oxopiperidin-3-yl)pyridin-3-yl)-N—((S)-1-(3-chlorophenyl)-2-hydroxyethyl)-2-fluorobenzamide] it is 1.09 nM. In the case of `CN1C[C@@H](c2cnc(N)c(-c3ccc(C(=O)N[C@H](CO)c4cccc(Cl)c4)c(F)c3)c2)CCC1=O` [Example 36, 4-(2-amino-5-((R)-1-methyl-6-oxopiperidin-3-yl)pyridin-3-yl)-N—((S)-1-(3-chlorophenyl)-2-hydroxyethyl)-2-fluorobenzamide], the IC50 worked out at 1.6 nM. Take `CN1C[C@H](c2cnc(N)c(-c3ccc(C(=O)N[C@H](CO)c4cccc(Cl)c4)c(F)c3)c2)CCC1=O` [Example 37, 4-(2-amino-5-((S)-1-methyl-6-oxopiperidin-3-yl)pyridin-3-yl)-N—((S)-1-(3-chlorophenyl)-2-hydroxyethyl)-2-fluorobenzamide]: the IC50 came to 1.05 nM. The figure for `C[C@@H](NC(=O)c1ccc(-c2cc(C3CCC(=O)N(C)C3)cnc2N)cc1F)c1cccc(Cl)c1` (stereo partly drawn) [Example 38, 4-(2-amino-5-(1-methyl-6-oxopiperidin-3-yl)pyridin-3-yl)-N—((R)-1-(3-chlorophenyl)ethyl)-2-fluorobenzamide] is 8.09 nM; for `CN1CC(c2cnc(N)c(-c3ccc(C(=O)N[C@H](CO)c4ccccc4)c(F)c3)c2)CC1=O` (stereo partly drawn) [Example 41, 4-(2-amino-5-(1-methyl-5-oxopyrrolidin-3-yl)pyridin-3-yl)-2-fluoro-N—((S)-2-hydroxy-1-phenylethyl)benzamide] it is 51 nM. In the case of `CN1CC(c2cnc(N)c(-c3ccc(C(=O)N[C@H](CO)c4cccc(Cl)c4)c(F)c3)c2)CC1=O` (stereo partly drawn) [Example 42, 4-(2-amino-5-(1-methyl-5-oxopyrrolidin-3-yl)pyridin-3-yl)-N—((S)-1-(3-chlorophenyl)-2-hydroxyethyl)-2-fluorobenzamide], half-maximal inhibition (IC50) was put at 5.44 nM. In turn, `CN1C[C@@H](c2cnc(N)c(-c3ccc(C(=O)N[C@H](CO)c4cccc(Cl)c4)c(F)c3)c2)CC1=O` [Example 43, 4-(2-amino-5-((R)-1-methyl-5-oxopyrrolidin-3-yl)pyridin-3-yl)-N—((S)-1-(3-chlorophenyl)-2-hydroxyethyl)-2-fluorobenzamide] showed an IC50 of 5.32 nM. Turning to `CN1C[C@H](c2cnc(N)c(-c3ccc(C(=O)N[C@H](CO)c4cccc(Cl)c4)c(F)c3)c2)CC1=O` [Example 44, 4-(2-amino-5-((S)-1-methyl-5-oxopyrrolidin-3-yl)pyridin-3-yl)-N—((S)-1-(3-chlorophenyl)-2-hydroxyethyl)-2-fluorobenzamide], the IC50 turned out to be 4.77 nM. Take `CC1(c2cnc(N)c(-c3ccc(C(=O)N[C@H](CO)c4ccccc4)c(F)c3)c2)CCOCC1` [Example 45, (S)-4-(2-Amino-5-(4-methyltetrahydro-2H-pyran-4-yl)pyridin-3-yl)-2-fluoro-N-(2-hydroxy-1-phenylethyl)benzamide]: inhibition was half-maximal at 3.61 nM (IC50).
